{"source": "patent US20150050410A1", "about": "“COMPOUNDS, COMPOSITIONS, AND METHODS FOR MODULATING SWEET TASTE” (Chromocell Corporation, priority 2013, published 2015)", "key": {"[1]": {"system": "perception of the sweet taste of an aqueous solution of sweetener in humans", "experiment": "Two-alternative forced choice \"sip and spit\" method (2AFC)", "type": "in vivo", "method": "The taste test panelists used in the Examples 1-3 were selected using a sensory acuity screening program. Candidate taste panelists were recruited, with prescreening and personal interviews, and were assessed and for their ability to detect, recognize and differentiate basic taste attributes or mixtures thereof as part of a standardized acuity test. This included basic tastes of sweet, sour, salty, bitter and umami, as well as having the capacity to focus on specific aspects of sensory character such as ranking the various tastes perceived and identifying the basic tastes presented at threshold levels.\nThe effect of the test compounds on the perception of the sweet taste of an aqueous solution of sweetener in humans was evaluated using a two-alternative forced choice “sip and spit” method (2AFC).\nThe aqueous sweetener solutions were prepared by adding, fructose, sucrose or glucose (by weight), to water to achieve the desired concentration.\nCompounds were first prepared as a 500-fold concentrated stock solution in 100% ethanol. These concentrated stocks were then added to the aqueous sweetener solutions to result in a final ethanol concentration of 0.2%. The control (positive and negative) samples were also normalized to 0.2% ethanol. This level of ethanol was not seen to contribute any perceived sweetness.\nThe 2AFC test used for compound evaluation was a blind and randomized test where taste panelists (n=15) evaluate a pair of sweetener solutions at a time one sample contains aqueous sweetener solution plus compound (i.e. test) while the other contains aqueous sweetener solution at higher concentration without compound (i.e. positive control). Each test sample was compared against a positive control. For example, if the test sample contained 1× sweetener concentration with compound (e.g. 5% sucrose with compound), the positive control sample contained a 1.1× sweetener concentration (e.g. 5.5% sucrose without compound).\nPanelists were instructed not to eat or drink (except water) for at least 1 h before the test. During the test, panelists were instructed to sip each sample, swirl it around their mouth and then expectorate. After tasting each sample in the pair, panelists were instructed to record the sample that is “sweeter” in taste. Panelists cleansed their palates by rinsing with water, eating a cracker and waiting for an interval of about 5 minutes. Each pair was tasted twice. All samples were tasted at ambient temperatures. Data were analyzed using binomial probabilities.\nApproximate levels of sweetness enhancement in column 5 of Table 2 were calculated as follows:\nApproximate levels of sweetness enhancement=Sweetener concentration of positive control surpassed by the test sample, divided by sweetener concentration for compound-containing sample (e.g. 1.15×=5.75% sucrose/5% sucrose)."}, "[2]": {"system": "perception of the sweet taste in humans", "experiment": "Trained descriptive analysis (DA) panel, sweet attribute", "type": "in vivo", "conditions": "for compound effects beyond the additive effect of inherent sweetness: 4% fructose and 8% sucrose; for DA Panel Average Sweetness Intensity Score (on 15 cm scale): inherent sweetness, 35 ppm compound plus solubilizing agent, 1 cm = 1% sucrose", "method": "The effect of the test compounds on the perception of the sweet taste in an aqueous environment, in the absence or presence of carbohydrate sweeteners, was evaluated using a descriptive analysis methodology with a group of trained panelists, as follows.\nCandidate panelists were recruited, with prescreening and personal interviews, and were assessed for their ability to detect, recognize and differentiate basic taste attributes or mixtures thereof as part of a standardized acuity test. These candidate panelists were also assessed for their innate ability to identify flavors, and to rank on intensity scales. Other senses such as smell and vision were also included as part of the assessment. Candidates also were screened for their ability to use the language to describe and articulate ideas.\nSelected candidates proceeded to training as a group in three phases: (1) Lexicon development, (2) Concept alignment, and (3) Scaling descriptors. During lexicon development, panelists evaluated products appropriate for use in the study to generate and align on terms describing the flavor, taste, aromatic, trigeminal, and temporal attributes. During concept alignment, the panel evaluated the products mentioned above to clarify and confirm the attributes that were generated during lexicon development using reference standards that appropriately define each attribute; these are either physical references (e.g. sucrose solutions) or verbal descriptions (e.g. overall flavor). Product terms and concepts were validated during this portion of the study.\nIn the last phase, scaling descriptors, the panel participated in a series of exercises focused on ordering and ranking samples according to relative attribute intensity, measuring attribute intensity using a defined length of line scale. Whenever possible, different levels or concentration of references were used as anchors to facilitate use of the scale. Panelists were provided with blinded references at this stage to evaluate their understanding and perception of the scale.\nThe panel used in this example was trained to reference sweet attributes in an absolute manner, such that a particular concentration of sweetener is always measured by the panelists at the same point using a 15 cm line scale where each cm represents a 1% increase in sucrose to cover the range of 0% to 15% sucrose. For the rest of the attributes, the panel was trained using a hybrid approach between descriptive analysis methods (e.g. quantitative descriptive analysis, the sensory spectrum, etc.) well-known to those skilled in the art.\nThe trained panel was then used for a descriptive analysis assessment for Compounds 1, 2 and 3 in aqueous solutions at pH 3 and pH 7. Each of the three compounds was tested at 35 ppm in sucrose and fructose sweeteners. In addition, Compounds 1, 2 and 3 were also examined in water at pH 3 and pH 7 to assess for any inherent sweetness.\nThe aqueous sweetener solutions were prepared by adding, fructose or sucrose (by weight), to water to achieve the desired concentration. Aqueous sucrose solutions at pH 3 were buffered using a final concentration of 0.096% Citric Acid plus 0.036% Sodium Citrate while aqueous fructose solutions at pH 3 were buffered using a final concentration of 0.06% Citric Acid and 0.0225% Sodium Citrate.\nCompounds were first prepared as a […] concentrated stock solution in 100% ethanol. These concentrated stocks were then added to the aqueous sweetener solutions to result in a final ethanol concentration of 0.2%. In addition to compounds, a solubilizing agent at a final concentration of 0.02% was added to the aqueous sweetener solutions. Control samples were also balanced with 0.2% ethanol and in certain cases 0.02% solubilizing agent.\nBoth control (aqueous sweetener solutions without compound) and variant (aqueous sweetener solutions with compound) samples were blinded and randomized (by sweetener and pH blocks). […]"}, "[3]": {"system": "tasters", "conditions": "DuBois, et al., J. Med. Chem., 1981; cited from earlier work"}}, "data": [{"compound": "COc1ccc(C2CC(=O)c3c(O)cccc3O2)cc1O", "note": "(racemic) [Compound 1, 5-hydroxy-2-(3-hydroxy-4-methoxyphenyl)chroman-4-one]", "values": [{"measurement": "Fold increase in perceived sweetness", "setting": "[1]; test sample 4% fructose, compound 25 ppm, positive control conc. / test sample conc.", "value": ">1.20", "unit": "X"}, {"measurement": "Sweetener Concentration of positive control surpassed by test sample", "setting": "[1]; test sample 4% fructose, positive control fructose, compound 25 ppm", "value": "> 4.8", "unit": "%"}, {"measurement": "Sweetener Concentration of positive control surpassed by test sample", "setting": "[1]; test sample 5% sucrose, positive control sucrose, compound 15 ppm", "value": "> 5.75", "unit": "%"}, {"measurement": "Sweetener Concentration of positive control surpassed by test sample", "setting": "[1]; test sample 6.5% glucose, positive control glucose, compound 10, 25 ppm", "value": "> 7.48", "unit": "%"}, {"measurement": "compound effects beyond the additive effect of inherent sweetness", "setting": "[2]; pH 3, 35 ppm, Table 7 vs Table 5", "value": "super-additive effects"}, {"measurement": "compound effects beyond the additive effect of inherent sweetness", "setting": "[2]; pH 7, 35 ppm, Table 6 vs Table 4", "value": "super-additive effects"}, {"measurement": "perceived sweetness compared to control sweetener solutions (FIG. 2)", "setting": "[2]; aqueous fructose and sucrose solutions at pH 3, 35 ppm, ** p<0.01", "value": "significant increase in perceived sweetness"}, {"measurement": "perceived sweetness compared to control sweetener solutions (FIG. 1)", "setting": "[2]; aqueous fructose and sucrose solutions at pH 7, 35 ppm, ** p<0.01", "value": "significant increase in perceived sweetness"}, {"measurement": "DA Panel Average Sweetness Intensity Score (on 15 cm scale)", "setting": "[2]; citric acid-citrate solution pH 3", "value": "do not show further significant increase in perceived inherent sweetness"}, {"measurement": "DA Panel Average Sweetness Intensity Score (on 15 cm scale)", "setting": "[2]; water pH 7", "value": "further increase in perceived sweetness"}, {"measurement": "reported sweet flavor", "setting": "[3]", "value": "sweet flavor"}]}]}
